# Species: Rattus norvegicus
# Test: Open TG-GATES - Regimen: Single
# Type: toxicity, organism-based, Sprague-Dawley
# Parameters: regimen Single, gender Male, age 6 weeks
# Details: in vivo, po, route gavage; for gamma-GTP / ALP / ALT / AST / BUN / CRE / Ca / Cl / DBIL / GLC / IP / K / LDH / Na / PL / RALB / TBIL / TG / TP: tissue Plasma; for APTT / Bas / Eos / Fbg / Hb / Ht / Lym / MCH / MCV / Mono / Neu / PT / Plat / RBC / Ret / WBC: tissue Blood; for KIDNEY_L / KIDNEY_R / KIDNEY_TOTAL: tissue Kidney; for LIVER: tissue Liver
smiles,measurement,setting,value
NC(=O)N1c2ccccc2C=Cc2ccccc21 [CARBAMAZEPINE],gamma-GTP,"0 mg/kg, 24 h, dose level Control",0.8 IU/L
same,TERMINAL_BW,"30 mg/kg, 3 h, dose level Low",214.2 g
same,APTT,"30 mg/kg, 3 h, dose level Low",19.1 s
same,Bas,"30 mg/kg, 3 h, dose level Low",0%
same,Eos,"30 mg/kg, 3 h, dose level Low",1%
same,Fbg,"30 mg/kg, 3 h, dose level Low",212.2 mg/dL
same,Hb,"30 mg/kg, 3 h, dose level Low",13.3 g/dL
same,Ht,"30 mg/kg, 3 h, dose level Low",39.3%
same,Lym,"30 mg/kg, 3 h, dose level Low",78.2%
same,MCH,"30 mg/kg, 3 h, dose level Low",21.1 pg
same,MCV,"30 mg/kg, 3 h, dose level Low",62.4 fL
same,Mono,"30 mg/kg, 3 h, dose level Low",2.4%
same,Neu,"30 mg/kg, 3 h, dose level Low",17.8%
same,PT,"30 mg/kg, 3 h, dose level Low",12.2 s
same,Plat,"30 mg/kg, 3 h, dose level Low",121.8 x10_4/uL
same,RBC,"30 mg/kg, 3 h, dose level Low",631.2 x10_4/ul
same,Ret,"30 mg/kg, 3 h, dose level Low",6.3%
same,WBC,"30 mg/kg, 3 h, dose level Low",97.3 x10_2/uL
same,KIDNEY_L,"30 mg/kg, 3 h, dose level Low",0.9 g
same,KIDNEY_R,"30 mg/kg, 3 h, dose level Low",0.9 g
same,KIDNEY_TOTAL,"30 mg/kg, 3 h, dose level Low",1.9 g
same,LIVER,"30 mg/kg, 3 h, dose level Low",9.8 g
same,ALP,"30 mg/kg, 3 h, dose level Low",896 IU/L
same,ALT,"30 mg/kg, 3 h, dose level Low",34.8 IU/L
same,AST,"30 mg/kg, 3 h, dose level Low",66.6 IU/L
same,BUN,"30 mg/kg, 3 h, dose level Low",12.6 mg/dL
same,CRE,"30 mg/kg, 3 h, dose level Low",0.4 mg/dL
same,Ca,"30 mg/kg, 3 h, dose level Low",10.6 mg/dL
same,Cl,"30 mg/kg, 3 h, dose level Low",103.6 meq/L
same,DBIL,"30 mg/kg, 3 h, dose level Low",0.072 mg/dL
same,GLC,"30 mg/kg, 3 h, dose level Low",187.8 mg/dL
same,IP,"30 mg/kg, 3 h, dose level Low",10.1 mg/dL
same,K,"30 mg/kg, 3 h, dose level Low",3.9 meq/L
same,LDH,"30 mg/kg, 3 h, dose level Low",177 IU/L
same,Na,"30 mg/kg, 3 h, dose level Low",142.4 meq/L
same,PL,"30 mg/kg, 3 h, dose level Low",143.8 mg/dL
same,RALB,"30 mg/kg, 3 h, dose level Low",3.3 g/dL
same,TBIL,"30 mg/kg, 3 h, dose level Low",0.1 mg/dL
same,TG,"30 mg/kg, 3 h, dose level Low",51.8 mg/dL
same,TP,"30 mg/kg, 3 h, dose level Low",5.5 g/dL
same,gamma-GTP,"30 mg/kg, 3 h, dose level Low",0.6 IU/L
same,TERMINAL_BW,"30 mg/kg, 6 h, dose level Low",211.1 g
same,APTT,"30 mg/kg, 6 h, dose level Low",21.9 s
same,Bas,"30 mg/kg, 6 h, dose level Low",0%
same,Eos,"30 mg/kg, 6 h, dose level Low",1%
same,Fbg,"30 mg/kg, 6 h, dose level Low",203.8 mg/dL
same,Hb,"30 mg/kg, 6 h, dose level Low",13.3 g/dL
same,Ht,"30 mg/kg, 6 h, dose level Low",38.6%
same,Lym,"30 mg/kg, 6 h, dose level Low",80.6%
same,MCH,"30 mg/kg, 6 h, dose level Low",20.9 pg
same,MCV,"30 mg/kg, 6 h, dose level Low",60.9 fL
same,Mono,"30 mg/kg, 6 h, dose level Low",2.6%
same,Neu,"30 mg/kg, 6 h, dose level Low",14.8%
same,PT,"30 mg/kg, 6 h, dose level Low",12.9 s
same,Plat,"30 mg/kg, 6 h, dose level Low",126.6 x10_4/uL
same,RBC,"30 mg/kg, 6 h, dose level Low",634.2 x10_4/ul
same,Ret,"30 mg/kg, 6 h, dose level Low",6.1%
same,WBC,"30 mg/kg, 6 h, dose level Low",83.2 x10_2/uL
same,KIDNEY_L,"30 mg/kg, 6 h, dose level Low",1 g
same,KIDNEY_R,"30 mg/kg, 6 h, dose level Low",1 g
same,KIDNEY_TOTAL,"30 mg/kg, 6 h, dose level Low",1.9 g
same,LIVER,"30 mg/kg, 6 h, dose level Low",9.2 g
same,ALP,"30 mg/kg, 6 h, dose level Low",896 IU/L
same,ALT,"30 mg/kg, 6 h, dose level Low",34.4 IU/L
same,AST,"30 mg/kg, 6 h, dose level Low",66 IU/L
same,BUN,"30 mg/kg, 6 h, dose level Low",9.6 mg/dL
same,CRE,"30 mg/kg, 6 h, dose level Low",0.4 mg/dL
same,Ca,"30 mg/kg, 6 h, dose level Low",10.4 mg/dL
same,Cl,"30 mg/kg, 6 h, dose level Low",103.2 meq/L
same,DBIL,"30 mg/kg, 6 h, dose level Low",0.078 mg/dL
same,GLC,"30 mg/kg, 6 h, dose level Low",197.6 mg/dL
same,IP,"30 mg/kg, 6 h, dose level Low",9.6 mg/dL
same,K,"30 mg/kg, 6 h, dose level Low",4 meq/L
same,LDH,"30 mg/kg, 6 h, dose level Low",194 IU/L
same,Na,"30 mg/kg, 6 h, dose level Low",140.6 meq/L
same,PL,"30 mg/kg, 6 h, dose level Low",130.6 mg/dL
same,RALB,"30 mg/kg, 6 h, dose level Low",3.3 g/dL
same,TBIL,"30 mg/kg, 6 h, dose level Low",0.1 mg/dL
same,TG,"30 mg/kg, 6 h, dose level Low",61.6 mg/dL
same,TP,"30 mg/kg, 6 h, dose level Low",5.5 g/dL
same,gamma-GTP,"30 mg/kg, 6 h, dose level Low",0.8 IU/L
same,TERMINAL_BW,"30 mg/kg, 9 h, dose level Low",210.1 g
same,APTT,"30 mg/kg, 9 h, dose level Low",18.7 s
same,Bas,"30 mg/kg, 9 h, dose level Low",0%
same,Eos,"30 mg/kg, 9 h, dose level Low",0.8%
same,Fbg,"30 mg/kg, 9 h, dose level Low",216.4 mg/dL
same,Hb,"30 mg/kg, 9 h, dose level Low",13.1 g/dL
same,Ht,"30 mg/kg, 9 h, dose level Low",38.3%
same,Lym,"30 mg/kg, 9 h, dose level Low",75.2%
same,MCH,"30 mg/kg, 9 h, dose level Low",21.3 pg
same,MCV,"30 mg/kg, 9 h, dose level Low",62.2 fL
same,Mono,"30 mg/kg, 9 h, dose level Low",1.6%
same,Neu,"30 mg/kg, 9 h, dose level Low",21.4%
same,PT,"30 mg/kg, 9 h, dose level Low",13 s
same,Plat,"30 mg/kg, 9 h, dose level Low",113.3 x10_4/uL
same,RBC,"30 mg/kg, 9 h, dose level Low",616.2 x10_4/ul
same,Ret,"30 mg/kg, 9 h, dose level Low",6.8%
same,WBC,"30 mg/kg, 9 h, dose level Low",83.2 x10_2/uL
same,KIDNEY_L,"30 mg/kg, 9 h, dose level Low",1 g
same,KIDNEY_R,"30 mg/kg, 9 h, dose level Low",1 g
same,KIDNEY_TOTAL,"30 mg/kg, 9 h, dose level Low",2 g
same,LIVER,"30 mg/kg, 9 h, dose level Low",8.6 g
same,ALP,"30 mg/kg, 9 h, dose level Low",814.2 IU/L
same,ALT,"30 mg/kg, 9 h, dose level Low",31.4 IU/L
same,AST,"30 mg/kg, 9 h, dose level Low",62.6 IU/L
same,BUN,"30 mg/kg, 9 h, dose level Low",11.8 mg/dL
same,CRE,"30 mg/kg, 9 h, dose level Low",0.4 mg/dL
same,Ca,"30 mg/kg, 9 h, dose level Low",10.3 mg/dL
same,Cl,"30 mg/kg, 9 h, dose level Low",102 meq/L
same,DBIL,"30 mg/kg, 9 h, dose level Low",0.076 mg/dL
same,GLC,"30 mg/kg, 9 h, dose level Low",190.4 mg/dL
same,IP,"30 mg/kg, 9 h, dose level Low",9.4 mg/dL
same,K,"30 mg/kg, 9 h, dose level Low",4.1 meq/L
same,LDH,"30 mg/kg, 9 h, dose level Low",175 IU/L
same,Na,"30 mg/kg, 9 h, dose level Low",140.4 meq/L
same,PL,"30 mg/kg, 9 h, dose level Low",137.2 mg/dL
same,RALB,"30 mg/kg, 9 h, dose level Low",3.3 g/dL
same,TBIL,"30 mg/kg, 9 h, dose level Low",0.1 mg/dL
same,TG,"30 mg/kg, 9 h, dose level Low",59.6 mg/dL
same,TP,"30 mg/kg, 9 h, dose level Low",5.6 g/dL
same,gamma-GTP,"30 mg/kg, 9 h, dose level Low",0.8 IU/L
same,TERMINAL_BW,"30 mg/kg, 24 h, dose level Low",228 g
same,APTT,"30 mg/kg, 24 h, dose level Low",19.6 s
same,Bas,"30 mg/kg, 24 h, dose level Low",0%
same,Eos,"30 mg/kg, 24 h, dose level Low",1%
same,Fbg,"30 mg/kg, 24 h, dose level Low",205.8 mg/dL
same,Hb,"30 mg/kg, 24 h, dose level Low",13.4 g/dL
same,Ht,"30 mg/kg, 24 h, dose level Low",39.6%
same,Lym,"30 mg/kg, 24 h, dose level Low",78.2%
same,MCH,"30 mg/kg, 24 h, dose level Low",21.4 pg
same,MCV,"30 mg/kg, 24 h, dose level Low",63.3 fL
same,Mono,"30 mg/kg, 24 h, dose level Low",2.4%
same,Neu,"30 mg/kg, 24 h, dose level Low",18%
same,PT,"30 mg/kg, 24 h, dose level Low",12.1 s
same,Plat,"30 mg/kg, 24 h, dose level Low",118 x10_4/uL
same,RBC,"30 mg/kg, 24 h, dose level Low",626.4 x10_4/ul
same,Ret,"30 mg/kg, 24 h, dose level Low",5.8%
same,WBC,"30 mg/kg, 24 h, dose level Low",103.7 x10_2/uL
same,KIDNEY_L,"30 mg/kg, 24 h, dose level Low",1.1 g
same,KIDNEY_R,"30 mg/kg, 24 h, dose level Low",1.1 g
same,KIDNEY_TOTAL,"30 mg/kg, 24 h, dose level Low",2.1 g
same,LIVER,"30 mg/kg, 24 h, dose level Low",11.2 g
same,ALP,"30 mg/kg, 24 h, dose level Low",892.6 IU/L
same,ALT,"30 mg/kg, 24 h, dose level Low",34 IU/L
same,AST,"30 mg/kg, 24 h, dose level Low",64.6 IU/L
same,BUN,"30 mg/kg, 24 h, dose level Low",16.2 mg/dL
same,CRE,"30 mg/kg, 24 h, dose level Low",0.4 mg/dL
same,Ca,"30 mg/kg, 24 h, dose level Low",10.6 mg/dL
same,Cl,"30 mg/kg, 24 h, dose level Low",102.4 meq/L
same,DBIL,"30 mg/kg, 24 h, dose level Low",0.1 mg/dL
same,GLC,"30 mg/kg, 24 h, dose level Low",214 mg/dL
same,IP,"30 mg/kg, 24 h, dose level Low",7.7 mg/dL
same,K,"30 mg/kg, 24 h, dose level Low",4.2 meq/L
same,LDH,"30 mg/kg, 24 h, dose level Low",198.8 IU/L
same,Na,"30 mg/kg, 24 h, dose level Low",140.2 meq/L
same,PL,"30 mg/kg, 24 h, dose level Low",151.2 mg/dL
same,RALB,"30 mg/kg, 24 h, dose level Low",3.3 g/dL
same,TBIL,"30 mg/kg, 24 h, dose level Low",0.1 mg/dL
same,TG,"30 mg/kg, 24 h, dose level Low",99.8 mg/dL
same,TP,"30 mg/kg, 24 h, dose level Low",5.5 g/dL

# Reference: ChEMBL document CHEMBL3885861, “Open TG-GATES”
